Experimental data taken from patent US20130196050A1, “SALTY TASTE ENHANCER” (AJINOMOTO CO., INC., priority 2010, published 2013).

Target: T1, Human ENaC δ, β and γ subunit (Homo sapiens, UniProt P51168+P51170+P51172)
T1 construct: expressed in transfected cells; host or cells: Xenopus laevis (African clawed frog) oocytes injected with cRNA
T1 sequence (P51172 1-638 isoform P51172-1): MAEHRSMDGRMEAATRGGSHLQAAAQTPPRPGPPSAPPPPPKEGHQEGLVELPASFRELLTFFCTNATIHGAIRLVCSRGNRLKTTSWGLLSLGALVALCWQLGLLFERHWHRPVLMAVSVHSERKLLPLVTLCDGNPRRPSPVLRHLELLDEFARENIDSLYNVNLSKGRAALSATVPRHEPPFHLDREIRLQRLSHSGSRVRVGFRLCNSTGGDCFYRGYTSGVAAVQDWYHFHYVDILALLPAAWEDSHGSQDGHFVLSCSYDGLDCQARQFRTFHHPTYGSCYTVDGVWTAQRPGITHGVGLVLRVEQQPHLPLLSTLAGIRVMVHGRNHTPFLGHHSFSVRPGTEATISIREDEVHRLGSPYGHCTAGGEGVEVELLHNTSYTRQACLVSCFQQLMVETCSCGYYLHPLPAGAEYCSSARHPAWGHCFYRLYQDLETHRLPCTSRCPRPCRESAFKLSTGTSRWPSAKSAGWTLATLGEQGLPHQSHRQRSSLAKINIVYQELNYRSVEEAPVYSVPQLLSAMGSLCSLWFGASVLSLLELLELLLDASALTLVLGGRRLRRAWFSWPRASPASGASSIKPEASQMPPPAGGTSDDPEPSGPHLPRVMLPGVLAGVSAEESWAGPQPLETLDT
T1 sequence (P51168 1-640): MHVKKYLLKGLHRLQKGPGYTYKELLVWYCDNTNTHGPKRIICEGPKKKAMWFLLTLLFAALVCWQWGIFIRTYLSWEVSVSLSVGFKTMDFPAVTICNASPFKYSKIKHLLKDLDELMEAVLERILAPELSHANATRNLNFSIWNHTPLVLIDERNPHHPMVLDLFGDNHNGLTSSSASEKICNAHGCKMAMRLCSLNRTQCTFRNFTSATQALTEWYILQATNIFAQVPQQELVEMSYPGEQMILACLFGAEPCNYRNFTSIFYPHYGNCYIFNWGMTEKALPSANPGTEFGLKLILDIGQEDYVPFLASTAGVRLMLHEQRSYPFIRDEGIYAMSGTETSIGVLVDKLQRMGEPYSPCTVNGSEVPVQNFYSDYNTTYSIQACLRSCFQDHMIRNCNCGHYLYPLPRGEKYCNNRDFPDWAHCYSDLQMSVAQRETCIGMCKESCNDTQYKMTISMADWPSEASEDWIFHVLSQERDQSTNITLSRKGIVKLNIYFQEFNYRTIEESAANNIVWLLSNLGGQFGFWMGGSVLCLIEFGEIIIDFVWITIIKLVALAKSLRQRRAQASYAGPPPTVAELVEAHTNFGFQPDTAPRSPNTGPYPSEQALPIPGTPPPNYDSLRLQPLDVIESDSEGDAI
T1 sequence (P51170 1-649): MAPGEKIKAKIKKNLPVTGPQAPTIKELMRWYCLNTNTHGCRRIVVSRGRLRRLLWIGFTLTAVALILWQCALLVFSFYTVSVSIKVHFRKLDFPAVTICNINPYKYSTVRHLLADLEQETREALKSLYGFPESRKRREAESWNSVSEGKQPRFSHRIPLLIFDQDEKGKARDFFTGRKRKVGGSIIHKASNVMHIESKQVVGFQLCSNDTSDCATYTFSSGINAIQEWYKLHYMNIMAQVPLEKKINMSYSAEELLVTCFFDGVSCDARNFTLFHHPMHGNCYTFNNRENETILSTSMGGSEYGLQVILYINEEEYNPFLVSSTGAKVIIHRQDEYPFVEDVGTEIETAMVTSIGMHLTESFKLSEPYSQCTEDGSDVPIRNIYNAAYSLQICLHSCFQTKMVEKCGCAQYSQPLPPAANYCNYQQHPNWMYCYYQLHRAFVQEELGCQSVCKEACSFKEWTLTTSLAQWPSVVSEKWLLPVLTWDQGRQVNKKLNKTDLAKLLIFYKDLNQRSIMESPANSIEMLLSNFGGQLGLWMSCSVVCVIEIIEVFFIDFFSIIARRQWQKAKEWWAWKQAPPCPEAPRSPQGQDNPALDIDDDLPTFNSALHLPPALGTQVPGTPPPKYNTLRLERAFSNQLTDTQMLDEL
Assay: Measurement of ENaC activation potency (two electrode voltage clamp current in ENaC-expressing oocyte)
Assay type: cell-based
Outline: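 Xenopus oocytes were injected with human ENaC δ, β and γ cRNA, cultured 16–72 h, and voltage-clamped by two-electrode clamp at −30 mV below resting potential in ND96 (pH 7.6) perfusion. Compounds (0.1 nM–300 μM) were added in rising concentrations at 3-min intervals. MED was the first concentration raising current by ≥10% over pre-addition current.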

For `O=C(NCCc1c[nH]c2ccc(O)cc12)c1c(O)cccc1O` [Example 35, 2,6-dihydroxy-N-(2-(5-hydroxy-1H-indol-3-yl)ethyl)benzamide], the “concentration from which the ENaC activation current starts to increase” value (FIG. 3) was 0.00001 g/dL, the “concentration at which the ENaC activation current reaches the maximum current value” (FIG. 3, almost constant up to 0.0080 g/dl) was 0.0020 g/dL and the “MED value (minimum effective dose)” value (lowest concentration increasing the current value by not less than 10% vs before addition) was 0.1 to 0.3 µM.
